Test results as given in patent publication US20190247333A1, “METHOD OF REDUCTION IN […] […]” (ZOGENIX INTERNATIONAL LIMITED, priority 2017, published 2019).

Columns and labels:
[1] = test system: patients with Dravet syndrome; experiment: Study 1: Phase 3 randomized, double-blind, placebo-controlled study of ZX008 as adjunctive therapy (ZX008-1501/1502); assay type: in vivo, human; settings: for mean (SD) number of non-convulsive seizures (all types) per 28 days: Baseline; for reduction from Baseline in non-convulsive seizure frequency: T+M Period; for mean (SD) non-convulsive seizure frequency per 28 days: end of T+M Period
Experimental: The first 119 subjects to be randomized in both identical studies combined were analyzed and reported as Study 1 (FIG. 1), covered by a Statistical Analysis Plan (SAP).
Primary and key secondary endpoints in the Study 1 SAP were pre-determined. All patients were treated twice per day over a period of 14 weeks using an oral syringe to administer the formulation. The treatment period included a two-week titration period and a 12-week maintenance period.
The initial results of Study 1 are outlined below. The randomized, double blind, placebo controlled, Phase 3 study enrolled 119 patients across sites in the United States, Canada, Europe and Australia. The median age of patients was 8 years, the mean age of patients was 9 years (range, 2-18 years) (FIG. 2).
Patients were titrated to their target dose over two weeks, and then remained at that fixed dose for 12 weeks. The mean baseline convulsive seizure frequency across the study groups was approximately 40 seizures per month. 110 (92%) patients completed the study (85% 0.8 mg/kg/day; 100% 0.2 mg/kg/day; 93% placebo).
The proportion of patients who achieved ≥75% seizure reductions, a secondary (non-key) efficacy measure, is also presented.
The mean number of convulsive seizure free days, defined as a day for which diary data are available and no convulsive seizures have been reported, was determined for each treatment group during the Baseline and T+M Periods. Using a parametric analysis, comparisons for the ZX008 groups to placebo were estimated from an ANCOVA model with treatment group (3 levels) and age group (<6 years, ≥6 years) as factors, log baseline number of convulsive seizure free days as a covariate and log convulsive seizure free days (Titration+Maintenance, or Maintenance Period) as response. The mean (SD) number of convulsive seizure free days per 28 days during the Baseline Period was 12.6 (7.68), 15.7 (6.80), and 14.6 (7.59) for the placebo, 0.2 and 0.8 mg/kg/day groups, respectively. […] The mean (SD) number of convulsive seizure free days for the 0.2 mg/kg/day group was 17.9 (8.04) days, which was numerically greater than placebo, but was not statistically significant (p=0.514). Similar results were obtained with a nonparametric analysis where the difference between the 0.8 mg/kg/day and placebo groups was statistically significant (p<0.001) while the difference between the 0.2 mg/kg/day and placebo groups was not (p=0.102).

[2] = test system: patients with Dravet syndrome; experiment: Open-label extension (OLE) study (Study 1503); assay type: in vivo, human; settings: for median decrease in MCSF over the entire observation period compared to baseline: OLE interim analysis
Experimental: Table 7 presents additional analysis of seizure free intervals in the two placebo-controlled studies prior to the OLE. Inclusion criteria in both studies were for patients aged ≥2 years. Subgroup analysis was performed on patients between ≥2 to <6 years and on patients ≥6 years.
Patients (2-18 years old) entered a long-term, OLE study (Study 1503) after completing either Study 1 or Study 1504: Study 1 (14 wk; FFA: 0, 0.2, or 0.8 mg/kg/d; max, 30 mg/d in stiripentol [STP]-free AED regimens) or Study 1504 (15 wk; FFA: 0.5 mg/kg/d; max, 20 mg/d in AED+STP regimens). In 1503, all patients received 0.2 mg/kg/d FFA for 1 month; dosing was titrated to therapeutic effect thereafter.
A total of 42 of 158 (26.6%) patients who enrolled in the OLE were <6 years old at time of entry into the OLE study. The median baseline monthly convulsive seizure frequency (MCSF) prior to double-blind treatment was 10.7 seizures/month (range, 4.0 to 147.3). At the time of the OLE interim analysis, the median decrease in MCSF over the entire observation period compared to baseline was −76% (P<0.001) compared with −64% in the overall study population during the same time period.

[3] = test system: patients with Dravet syndrome; settings: cited from earlier work
[4] = long-term fenfluramine treatment

CCNC(C)Cc1cccc(C(F)(F)F)c1 (racemic) [fenfluramine, 3-trifluoromethyl-N-ethylamphetamine]
mean (SD) number of non-convulsive seizures (all types) per 28 days ([1]; 0.2 mg/kg/day group): 193.6 (478.45) per 28 days
reduction from Baseline in non-convulsive seizure frequency ([1]; 0.2 mg/kg/day): 9.7%
mean (SD) non-convulsive seizure frequency per 28 days ([1]; 0.2 mg/kg/day): 93.7 (219.69) per 28 days
mean (SD) number of non-convulsive seizures (all types) per 28 days ([1]; 0.8 mg/kg/day group): 335.2 (758.58) per 28 days
reduction from Baseline in non-convulsive seizure frequency ([1]; 0.8 mg/kg/day): 59.1%
mean (SD) non-convulsive seizure frequency per 28 days ([1]; 0.8 mg/kg/day): 127.9 (297.39) per 28 days
reduction in MCSF ([2]; Dravet patients 6 years of age or less): sustained, clinically meaningful reduction in MCSF
median decrease in MCSF over the entire observation period compared to baseline ([2]; overall study population): −64%
median decrease in MCSF over the entire observation period compared to baseline ([2]; patients <6 years old at entry): −76%
most frequently reported AE's ([2]; OLE, patients <6 years old): pyrexia, nasopharyngitis, upper respiratory tract infections, and diarrhea
Seizure-free Patients ([3]; fenfluramine and valproate, average 0.34 mg/kg/day for between 1 and 22 years): 66.6%
heart valve defects by echocardiography [3, 4]: No clinically relevant defects were identified
reduction in seizures [3, 4]: 75%
incidence of all types of seizures ([3]; not only photosensitive or self-induced seizures): effectively reduced the incidence of all types of seizures
